Type in all cases: in vivo, human
Data set [1] relates to special operations veterans. Briefly: Clinician rated psychiatric assessments (PTSD, depression, anxiety) overall, Example 1 study. Conditions: following treatment; sustained at one-month follow-up. As to the method: The safety and efficacy of ibogaine treatment in combination with a cardioprotective agent was evaluated in subjects with a history of TBI. At baseline, study participants were experiencing clinically significant levels of disability, PTSD, depression, and anxiety. […] Indeed, disability measures continued to improve, and psychiatric symptom remission and response rates one-month post-treatment remained high.
Clinician administered scales included CAPS-5 (Clinician-administered PTSD Scale for DSM-5), which is a gold standard assessment of PTSD symptom severity; MADRS (Montgomery-Asberg Depression Rating Scale), a measure for depressive symptom severity; and Hamilton-Anxiety Rating Scale (HAM-A) (Shear, M. K. et al., Depress. Anxiety 13, 166-178 (2001)) a measure for anxiety symptom severity; SCID-5 (Structured Clinical Interview for DSM-5) Overview for a historical and environmental context of symptom presentation; MINI DSM-5 (Mini International Neuropsychiatric Interview from DSM-5) for a structured psychodiagnostics assessment; BAT-L (Boston Assessment of TBI—Lifetime) for a lifetime history of TBI and blast exposure; and Ohio State University TBI Identification Method (Short Form) for a lifetime history of TBI. MADRS testing provides an indication of depressive symptoms, CAPS-5 provides an indication of PTSD and SIGH-A provides an indication of anxiety. […]

The test system of data set [2] is special operations veterans. The experiment in a line: Structural T1w MRI, FreeSurfer regional volume and cortical thickness. As to the method:
Structural imaging of the brain was also conducted on some of the subjects of Example 1. Gray matter constitutes about 40% of the brain and white matter constitutes about 60% of the brain. Gray matter contains most of the brain's neuronal cell nodes, it is fully developed once a person reaches their 20's and interprets sensor information from various parts of the body. White matter is made up of bundles which connect various gray matter areas, it develops throughout the 20's and peaks in middle age, Typical metrics analyzed in anatomical (T1-weighted, “T1w”) imaging include volume and/or shape of nuclei (e.g. caudate), volume and/or shape of ventricles of the brain, and cortical thickness (mm). These metrics can be used to study normal and abnormal neuroanatomy and are primarily used to quantify gray matter. A tool called FreeSurfer was applied to images for a T1w structural analysis (volume, cortical thickness) to adjust for bias, remove non-brain matter, segments by tissue, parcels the brain into standardized regions, and provides measurements of those regions. FreeSurfer measurements of whole brain volume, volume by tissue (gray, white, CSF), estimated intracranial volume (ICV), subcortical gray matter volume, cortical volume by region were done. […] In particular, analysis was done to determine if there was any loss in gray matter volume or cortical thickness, whether there was a loss in white matter volume or an increase in presence of white matter hypotensities.
The fMRI images were also inspected to determine the difference in volume in regional areas of the brain from baseline to one month after treatment. FIG. 8A is a bar graph showing the effect size of a change in volume in 47 brain regions indicated along the x-axis. […] The fMRI images were also inspected for whole brain thickness at baseline and one month after treatment. […] FIG. 8B is a bar graph showing the effect size of a cortical thickness change for the brain regions indicated along the x-axis, from baseline to one month after treatment. […] The right and left parahippocampal gyrus are involved in visuospatial processing, including scene perception, navigation, and emotional contextualization. The left orbitofrontal gyrus is involved in impulse control and reward valuation. The left insular cortex is associated with both the affective-perceptual and cognitive-evaluative forms of empathy, as well as awareness of hunger, pain and fatigue. The left entorhinal cortex is a widespread network hub for memory, navigation, and perception of time.

The test system of data set [3] is special operations veterans. Briefly: MADRS depression rating scale, Example 1 study. Conditions: for MADRS score, mean: p(FDR) <0.001. As to the method:
With subjects in the fasting state, an intravenous infusion of 1 gram of magnesium sulfate was administered 1-2 hours prior to treatment. […] Medical staff (MD, RN, or EMT) were onsite at a ratio of at least 1 staff per 2 patients throughout treatment for monitoring and management, but no specific coaching or psychological support was provided during treatment.
Post treatment, each subject was assessed four days after treatment, one month after treatment, and, if willing, one year after treatment. The post-treatment assessments conducted at four days and at one month after treatment included neuropsychological testing, measures of PTSD, depression, anxiety, mystical experiences, functional imaging and EEG. Post-treatment assessments conducted at one year after treatment included PTSD, depression, and anxiety measures.
Clinician administered scales included CAPS-5 (Clinician-administered PTSD Scale for DSM-5), which is a gold standard assessment of PTSD symptom severity; MADRS (Montgomery-Asberg Depression Rating Scale), a measure for depressive symptom severity; and Hamilton-Anxiety Rating Scale (HAM-A) (Shear, M. K. et al., Depress. Anxiety 13, 166-178 (2001)) a measure for anxiety symptom severity; SCID-5 (Structured Clinical Interview for DSM-5) Overview for a historical and environmental context of symptom presentation; MINI DSM-5 (Mini International Neuropsychiatric Interview from DSM-5) for a structured psychodiagnostics assessment; BAT-L (Boston Assessment of TBI—Lifetime) for a lifetime history of TBI and blast exposure; and Ohio State University TBI Identification Method (Short Form) for a lifetime history of TBI. MADRS testing provides an indication of depressive symptoms, CAPS-5 provides an indication of PTSD and SIGH-A provides an indication of anxiety. Collectively these overlap to provide indication of mood, concentration, sleep and tension.
The MADRS is a clinician—administered 10-item scale assessing the severity of depression symptoms. Items are rated on a scale of 0 (no abnormality) to 6 (severe) (Montgomery, S. A. et al., Br. J. Psychiatry J. Ment. Sci. 134, 382-389 (1979)). A total score of 0-6 indicates no depression, 7-19 mild depression, 20-34 moderate depression, 35-59 severe depression, […] (Miller, M. J., J. Affect. Disord. 77, 255-260 (2003)).

On to `CCC1CC2CC3c4[nH]c5ccc(OC)cc5c4CCN(C2)C13` (stereo not shown) [ibogaine, Ibogaine], for which the “Cohen's D on clinician rated psychiatric assessments” value in data set [1] is on record as greater than 2. Moreover, the “White matter hypointensities (corrected for cerebral white matter), baseline vs. one month post treatment” value in data set [2] (17 subjects, two-tailed p = 0.0789, left tailed p = 0.9606, right-tailed p = 0.0394) is given as “Two-tailed: no significant differences”. Further, the “Subcortical Gray Matter volume, baseline vs. one month post treatment” value in data set [2] (17 subjects, two-tailed p = 0.0949, left tailed p = 0.0475, alpha = 0.05) is given as “Two-tailed: no significant differences”. Moreover, in data set [2] (17 subjects, two-tailed p = 0.4755, alpha = 0.05), the “Total Gray Matter volume, baseline vs. one month post treatment” value is on record as “Two-tailed: no significant differences”. For the same compound, in data set [2] (17 subjects, two-tailed p = 0.4847, alpha = 0.05), the “Cortical Gray Matter volume, baseline vs. one month post treatment” value is recorded as “Two-tailed: no significant differences”. For the same compound, the “Regional brain volume increases, baseline to one month after treatment” value in data set [2] (47 brain regions (FIG. 8A)) was “Increases in volume were observed in the cerebral white mater (left) and the left ventral DC”. Also, the “Regional cortical thickness change” value in data set [2] (baseline to one month after treatment (FIG. 8B)) was “Increases in cortical thickness one-month after treatment was observed in left entorhinal cortex, left-lateral-orbitofrontal pole, parahippocampal gyrus (bilaterally), left insular cortex, and right-pars triangularis (inferior frontal gyrus)”. The “Left hemisphere mean thickness” value in data set [2] (one month after treatment vs baseline, two-tailed p=0.7146, alpha=0.05) was “no significant difference from baseline”. Besides, the “Right hemisphere mean thickness” value in data set [2] (one month after treatment vs baseline, two-tailed, alpha=0.05) is “no significant difference from baseline”. Further, in data set [2] (treated subjects, one month after treatment), the “Inspection of brain volume and thickness for damage” value is “no apparent damage to the brain”. The “MADRS score, mean” value in data set [3] (1-mo. post, SD 5.9, baseline 25.2 ± 8.7, N 28, only participants with mild TBI) is given as 3.6; in data set [3] (1-mo. post, SD 7.7, baseline 31.3 ± 6.5, N 15, only participants meeting diagnostic criteria per MINI at baseline), 6.4; in data set [3] (1-wk post, SD 3.6, baseline 31.3 ± 6.5, N 15, only participants meeting diagnostic criteria per MINI at baseline), 3.6; in data set [3] (1-wk. post, SD 3.2, baseline 25.2 ± 8.7, N 28, only participants with mild TBI), 2.7. The “MADRS % Reduction vs Baseline, mean” value in data set [3] (1-mo. post, SD 17%, only participants with mild TBI) was 87% ±; in data set [3] (1-mo. post, SD 21%, only participants meeting diagnostic criteria per MINI), 81% ±; in data set [3] (1-wk. post, SD 11%, only participants meeting diagnostic criteria per MINI), 89% ±; in data set [3] (1-wk. post, SD 24%, only participants with mild TBI) it was 87% ±. Moreover, the “MADRS, D” value in data set [3] (Baseline vs 1-mo. post, only participants with mild TBI) worked out at 2.70.

These data come from US20240100062A1, “Methods of Treatment With an Iboga Alkaloid” (priority 2022, published 2024).
